Assay results as given in patent publication US20140366219A1, “Increasing Soybean Defense Against Pests” (priority 2011, published 2014).
Values joined by “and” are separate entries in the source; they are usually repeats but may differ in a detail not shown here. Identical values can stand only once.

B1: GmSABP2-1: soybean methyl salicylate esterase gene (SEQ ID NO: 2), over-expressed in transgenic hairy roots (nucleic acid)
DNA: ATGGGTTCACAAAATTGTATGGATAGGAAGCACTATGTTCTGGTGCATGGGGCATGCCATGGAGCTTGGTGTTGGTATAAGCTCAAGCCACGCTTGGAATCTGCAGGCCATAAGGTCACAGTACTTGACCTTGCAGCTTCTGGAACCAACATGAAGAAAATTGAAGATGTTGATACTTTCTCAGAGTATTCTGCGCCTTTGTTGCAGCTAATGGCCACAATTCCCTCAAATGAGAAGTTAGTTCTAGTTGGTCACAGCCTTGGAGGGCTGAACATAGCACTTGCAATGGAGAAATTCCCAGAAAAGGTAGCAGTTGGTGTTTTCTTAACAGCTTTTGCTCCAGACACTGAACACCACCCATCTTATGTCTTGGAAAAGTACAATGAGAGGACCCCGTTAGCTGCATGGTTAGACACTGAATTTGCTCCAAGCGGAAACAAAACATCAATGTTCTTCGGCCCCAACTTCTTGTCCGACAAGCTCTACCAACTGTCCCCTATTGAGGACTTGGAATTGGCCAAGACTTTAGCAAGGCCATCATCGCTCTTCATGGAAGACTTGACTAAACAAAAGAACTTCTCCAAAGAGGGATATGGGTCAGTTCCACGTGCCTTTATTGTTTGCACGGAGGACCTTGGAATTCCATTGGAATATCAGCTCTTGATGATCCAAAATGTTGGGTTCAATGACGTTGTAGAGGTCAAAGACGCAGATCATATGGTTATGCTTTGCAAGCCACAAGAACTATTCGATTCCCTCCAGCAGATAGCGACTAAATATGCATGA
modifications: Glycine Max
B2: GmSAMT1 (Glycine max) (protein)
chain: MEVAQVLHMNGGVGDASYANNSLVQQKVICLTKPIREEAIRSLYCSTHPRSLAIADLGCSSGPNTLFVVSEFIKIVEKLCRELNHKSPEYKVFLNDLPGNDFNNIFKSLDSVKEKLCDEMESGIGPCYFSGVPGSFYGRVFPYQSLHFVHSSYSLQWLSKVPEGVDNNKGNVYIGSTSPKNVVRAYYEQFQRDFSLFLKCRAEELVEGGRMVLTFLGRRSDDPSSKDGCYIWELLATALSDMVLQGIIREEQLDTFNIPQYTPSPSEVKLEVLKEGSFAINRLEVSEVNWNALDEWNALDFESERSESLSDGEYNVAQCMRAVAEPMLISHFGEAIIEEVFCRYQQILAERMSKEKTKFINVTILLTRKA

Experiments:
GmSAMT1 [1] = molecular target: T1, GmSAMT1 (Glycine max, UniProt B5A7G5); assay: Radiochemical SAMT activity assay, substrate specificity of recombinant GmSAMT1; type: biochemical, soybean; details: all substrates at 1 mM, activity with salicylic acid set at 100%, average of three measurements
T1 sequence (B5A7G5 1-370): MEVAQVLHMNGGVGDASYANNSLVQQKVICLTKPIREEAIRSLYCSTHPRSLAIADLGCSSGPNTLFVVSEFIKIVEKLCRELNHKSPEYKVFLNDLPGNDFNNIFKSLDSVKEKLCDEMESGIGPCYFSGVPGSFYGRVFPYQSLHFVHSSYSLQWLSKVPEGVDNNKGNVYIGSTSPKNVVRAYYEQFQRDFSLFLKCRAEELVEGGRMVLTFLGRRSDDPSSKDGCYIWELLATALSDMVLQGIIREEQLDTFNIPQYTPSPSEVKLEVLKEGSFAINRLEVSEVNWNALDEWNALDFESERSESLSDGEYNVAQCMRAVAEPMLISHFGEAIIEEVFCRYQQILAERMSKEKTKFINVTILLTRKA
Protocol: (§1) A 50 μl volume containing 50 mM Tris-HCl, pH 7.5, 1 mM SA, and 3 μM ^14C-SAM with a specific activity of 51.4 mCi/mmol (Perkin-Elmer, Boston, Mass.) was used. The assay was initiated by addition of SAM, maintained at 25° C. for 30 min, and stopped by the addition of ethyl acetate (150 μl). After phase separation by 1 min centrifugation at 14,000 g, the upper organic phase was counted using a liquid scintillation counter (Beckman Coulter, Fullerton, Calif.). The radiation counts in the organic phase indicated the amount of synthesized MeSA. Substrate specificity assay was also performed for recombinant GmSAMT1, with a range of substrates including SA, benzoic acid, anthranilic acid, 3-hydroxybenzoic acid, 4-hydroxybenzoic acid, nicotinic acid, p-coumaric acid, caffeic acid, cinnamic acid, vanallic acid, jasmonic acid (JA), gibberellic acid, indole-3-acetic acid, and 2,4-dichlorophenoxyacetic acid. The activity with SA was set at 100%. Three independent assays were performed for each compound.

GmSAMT1 [2] = molecular target: T1, GmSAMT1; assay: Effects of metal ions on activity of GmSAMT1; type: biochemical, soybean; details: chloride salts at 5 mM final concentration; control without metal ion set at 1.0
Protocol: as §1
Appropriate enzyme concentrations and incubation time were determined in time course assays to make sure that the reaction velocity was linear during the assay period. Lineweaver-Burk plots yielded apparent Km values. To determine the Km for SA, concentrations of SA were independently varied from 2 to 150 μM, while SAM was held constant at 200 μM. Assays were conducted at 25° C. for 30 min, as described in SAMT activity assay. The optimal pH for GmSAMT1 was assayed from pH 6.0 to pH 9.0, and optimal reaction of temperature was assayed ranging from 0° C. to 60° C. Effects of metal ions on activity of GmSAMT1 were assayed with a range of metal ions, including K^+, Cu^2+, Zn^2+, Fe^2+, Fe^3+, Mn^2+, Ca^2+, Na^+, NH4^+, and Mg^2+, in the form of chloride salts at 5 mM final concentrations.

SCN race 2 = assay: Nematode infection and demographics assay in transgenic soybean hairy roots; type: in vivo, Heterodera glycines; details: TN02-275 background; susceptibility of vector control in susceptible background set at 100%
Excerpt: The soybean hairy root transformation system by infection with A. rhizogenes harboring the target genes were modified and used to study soybean resistance against SCN. A. rhizogenes K599 harboring the target gene, vector control and A. rhizogenes K599 alone were used to inoculate the TN02-275 soybeans, which are susceptible to SCN race 2. To better evaluate the resistance of the target gene, A. rhizogenes harboring the vector control and A. rhizogenes K599 alone were also used to inoculate the TN02-226 soybeans, which are resistant to SCN race 2. Generation of soybean hairy roots was modified as follows: First, soybean seeds were sterilized with chlorine gas. Second, a single layer of mature soybean seeds with intact seed coats were placed in open Petri dish, which was put in a bell jar desiccator within a fume hood. A beaker with 100 ml bleach was also placed in the desiccator and added 5 ml concentrated (12N) HCl along the side of the beaker. Then the seeds were kept in the closed desiccator immediately and maintained in the chlorine gas atmosphere overnight (about 16 h). After sterilization, seeds were transferred to the autoclaved filter paper moistened with sterilized distilled water in the Petri dishes for germination in a laminar flow hood. The germinated soybean seeds were sowed in sterilized vermiculite and six seeds were grown in each cell of 18-cell germination tray. The overnight cultured bacteria lawn of A. rhizogenes K599 with binary vector pJL-OFP, pJL-OFP-35S::GUS or pJL-OFP-35S::GmSAMT1 from LB medium plate containing […] kanamycin, or a culture of A. rhizogenes K599 lacking the binary vector grown in LB medium without any antibiotics was collected and suspended in 1 ml of sterile distilled water, respectively. Soybean cotyledonary nodes and upper hypocotyls of 5-day-old seedlings with unfolded cotyledons were stabbed three times by the syringe containing the bacterial suspension. In the first week, the trays were covered with the sterile transparent lids to retain high humidity. In the subsequent three weeks, plants were transferred into pots and the A. rhizogenes wounding sites were covered by wet sterile vermiculite to continually keep high humidity. Each day soybean plants were watered using sterile B&D solution containing 1 mM CaCl2, 0.5 mM KH2PO4, 10 μM Fe-citrate, 0.25 mM MgSO4, 0.25 mM K2SO4, 1 μM MnSO4, 2 μM H3BO4, 0.5 μM ZnSO4, 2 μM CuSO4, 0.1 μM CoSO4, 0.1 μM Na2MoO4, and 1 mM KNO3. The growth conditions for soybean plants were 12 h light/12 h dark at 28° C./25° C. with irradiance from fluorescent bulbs at 150-200 μmol m^−2·s^−1. After about four weeks, the hairy roots grew to approximately 10 cm in length. Soybean transgenic roots were detected based on OFP expression, using a fluorescence stereomicroscope (Olympus SZX12 fluorescence microscope and OFP filter). The tap root and non-transgenic roots were excised under the wounding site. Transgenic roots harboring pJL-OFP-35S::GUS screened by OFP signal were immersed in GUS solution (1 mM X-Gluc), 0.5 mM potassium ferrocyanide, 0.1% (v/v) TRITON™ X-100, 100 mM sodium phosphate buffer pH 7.0), and incubated at 37° C. overnight. In the following day, the X-Gluc solution was discarded. The roots were washed repeatedly with 70% ethanol to remove chlorophyll. Transgenic roots with visual GUS stain were recorded.
To easily compare the SCN infection, one transgenic root was left for the SCN inoculation. […]

[3] = substrate: O=C(O)c1ccccc1O; assay: Determination of kinetic parameters of GmSAMT1 (Lineweaver-Burk); type: biochemical, soybean; details: other: SA varied 2 to 150 μM, SAM 200 μM, 25° C., 30 min
Protocol: as §1
Appropriate enzyme concentrations and incubation time were determined in time course assays to make sure that the reaction velocity was linear during the assay period. Lineweaver-Burk plots yielded apparent Km values. To determine the Km for SA, concentrations of SA were independently varied from 2 to 150 μM, while SAM was held constant at 200 μM. […]

| Molecule | Relative activity of GmSAMT1 with substrate (GmSAMT1 [1]) | effect of metal ion on GmSAMT1 activity compared with control (GmSAMT1 [2]) | other results |
| --- | --- | --- | --- |
| O=C(O)COc1ccc(Cl)cc1Cl [2,4-Dichlorophenoxyacetic acid, 2,4-dichlorophenoxyacetic acid] | 0% |  |  |
| O=C(O)c1cccc(O)c1 [3-Hydroxybenzoic acid, 3-hydroxybenzoic acid] | 1.8% |  |  |
| O=C(O)c1ccc(O)cc1 [4-Hydroxybenzoic acid, 4-hydroxybenzoic acid] | 0% |  |  |
| Nc1ccccc1C(=O)O [Anthranilic acid, anthranilic acid] | 9.3% |  |  |
| O=C(O)c1ccccc1 [Benzoic acid, benzoic acid] | 16.9% |  |  |
| [Ca+2].[Cl-].[Cl-] [Ca^2+] |  | moderately inhibited |  |
| O=C(O)/C=C/c1ccc(O)c(O)c1 [Caffeic acid, caffeic acid] | 0% |  |  |
| O=C(O)C=Cc1ccccc1 [Cinnamic acid, cinnamic acid] | 0% |  |  |
| [Cl][Cu][Cl] [Cu^2+] |  | no activity |  |
| [Cl][Fe][Cl] [Fe^2+] |  | no activity |  |
| C=C1C[C@]23C[C@@]1(O)CC[C@H]2[C@@]12C=C[C@H](O)[C@@](C)(C(=O)O1)[C@H]2[C@@H]3C(=O)O [Gibberellic acid, gibberellic acid] | 0% |  | Relative activity of GmSAMT1 with substrate (GmSAMT1 [1]; listed as gibberellic acid): no activity was detected |
| O=C(O)Cc1c[nH]c2ccccc12 [Indole-3-acetic acid, indole-3-acetic acid] | 0% |  | Relative activity of GmSAMT1 with substrate (GmSAMT1 [1]; listed as indole-3-acetic acid): no activity was detected |
| CC/C=C\C[C@H]1C(=O)CC[C@@H]1CC(=O)O [Jasmonic acid, jasmonic acid] | 0% |  | Relative activity of GmSAMT1 with substrate (GmSAMT1 [1]; listed as JA): no activity was detected |
| [Cl-].[K+] [K] |  | double activity |  |
| [Cl-].[Cl-].[Mg+2] [Mg^2+] |  | minimal effect |  |
| [Cl][Mn][Cl] [Mn^2+] |  | moderately inhibited |  |
| Cl.N [NH4^+] |  | minimal effect |  |
| [Cl-].[Na+] [Na^+] |  | minimal effect |  |
| O=C(O)c1cccnc1 [Nicotinic acid, nicotinic acid] | 0% |  |  |
| O=C(O)c1ccccc1O [Salicylic acid, salicylic acid] | 100% |  |  |
| COc1cc(C(=O)O)ccc1O [Vanallic acid, vanallic acid] | 0% |  |  |
| [Cl-].[Cl-].[Zn+2] [Zn^2+] |  | no activity |  |
| O=C(O)/C=C/c1ccc(O)cc1 [p-Coumaric acid, p-coumaric acid] | 0% |  |  |
| B1 |  |  | reduction of susceptibility (SCN race 2): 84.5% |
| B2 |  |  | Km [3]: 32.9 ± 1.7 µM and 46.2 ± 4.2 µM |
